# Laboratory results taken from PMC7577125 (Antimicrobial Agents and Chemotherapy, 2020).
# Read-outs that look alike come from different tables or passages of the source.
# What was measured:
# CYP2B6 = molecular target: T1, CYP2B6 (Homo sapiens, UniProt P20813); assay: CYP inhibition in human liver microsomes, 2B6; format: in vitro ADME; conditions: 0.1–100 μM
# T1 construct: in human liver microsomes; from tissue; host or cells: human liver microsomes
# CYP2D6 = molecular target: T2, CYP2D6 (Homo sapiens, UniProt P10635); assay: CYP inhibition in human liver microsomes, 2D6; format: in vitro ADME; conditions: 0.1–100 μM
# T2 construct: in human liver microsomes; from tissue; host or cells: human liver microsomes
# HBV [1] = assay: microbe, parasite or virus in culture; conditions: Hepatitis B virus
# in vitro [2] = conditions: human, plasma
# in vivo = conditions: male
# Method: The same solution formulation was administered per os (p.o.) in the same species to determine oral bioavailability.
# Pharmacokinetic studies were performed at Wuxi (Shanghai, China) for studies in male mouse, rat, and cynomolgus monkey and at Sai (Pune, India) for studies in male dog. For all oral studies, the formulation was administered in the fasted state (food removed at least 12 h prior to dosing) to groups of 3 per arm.
# HBV Cp Y118F = assay: microbe, parasite or virus in culture; format: cell-based, Hepatitis B virus
# in vitro [3] = conditions: human
# [4] = molecular target: HBV Cp (3CA Cp150-BODIPY) (Hepatitis B virus genotype D subtype adw, UniProt P03147, C107A/C48A/C61A/R150C); assay: HBV Cp in vitro assembly assay (fluorescence quenching)
# HBV Cp Y38F = assay: microbe, parasite or virus in culture; format: cell-based, Hepatitis B virus
# HBV genotype D = assay: microbe, parasite or virus in culture; format: cell-based; conditions: Hepatitis B virus, read-out: Mean antiviral EC50
# CYP2C9 = molecular target: T3, CYP2C9 (Homo sapiens, UniProt P11712); assay: CYP inhibition in human liver microsomes, 2C9; format: in vitro ADME; conditions: 0.1–100 μM
# T3 construct: in human liver microsomes; from tissue; host or cells: human liver microsomes
# [5] = test system: herpes simplex virus 1, human rhinovirus 16, influenza A virus; assay: Cell protection assays with 3 unrelated viruses; conditions: concentrations of up to 10 μM
# HBV Cp T109I = assay: microbe, parasite or virus in culture; format: cell-based, Hepatitis B virus
# in vitro [6] = conditions: rat, hepatocytes
# HBV cccDNA = assay: cccDNA formation assay in infected PHH cells (Southern blot); format: cell-based; conditions: Hepatitis B virus, 96 h, 4 days, read-out: cccDNA % of Control
# [7] = test system: Huh7, HepG2, HeLa H1A, HEK293, NCI-H226, MOLT-4, PBMC
# [8] = test system: HBV genotypes A, B, C, and D; assay: microbe, parasite or virus in culture; format: cell-based; conditions: Hepatitis B virus, read-out: VR EC50s
# HBV [9] = assay: Dose response of ETV and ABI-H0731 alone and in combination in induced HepAD38 cells; format: cell-based, Hepatitis B virus
# Method: Viral replication was evaluated by quantifying the levels of total HBV DNA in the cells by qPCR. […] In both cases, the data are plotted as a function of each drug’s concentration relative to its VR EC50.
# [10] = test system: HBV (genotype D, subtype ayw); assay: HBV replication assay in HepAD38 cells; format: cell-based, Hepatitis B virus; conditions: Hepatitis B virus
# [11] = Sprague-Dawley, rat, iv, 1 mg/kg
# [12] = Sprague-Dawley, rat, po, 2 mg/kg
# [13] = cynomolgus monkey, iv, 0.5 mg/kg
# [14] = Hepatitis B virus, Huh-7, read-out: Mean EC50
# T1 sequence (P20813 whole entry): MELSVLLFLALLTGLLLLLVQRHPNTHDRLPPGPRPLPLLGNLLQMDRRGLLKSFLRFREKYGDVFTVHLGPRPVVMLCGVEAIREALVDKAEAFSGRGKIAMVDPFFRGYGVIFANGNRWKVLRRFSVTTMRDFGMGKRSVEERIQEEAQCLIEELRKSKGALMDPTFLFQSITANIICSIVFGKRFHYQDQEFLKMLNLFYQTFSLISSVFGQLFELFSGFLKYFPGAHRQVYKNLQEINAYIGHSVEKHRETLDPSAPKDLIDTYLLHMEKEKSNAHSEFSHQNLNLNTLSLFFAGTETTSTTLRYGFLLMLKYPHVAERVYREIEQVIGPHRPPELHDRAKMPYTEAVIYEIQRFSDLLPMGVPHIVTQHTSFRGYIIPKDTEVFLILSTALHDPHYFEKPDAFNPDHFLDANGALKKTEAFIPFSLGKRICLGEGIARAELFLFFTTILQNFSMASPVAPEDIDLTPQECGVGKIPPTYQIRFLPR
# T2 sequence (P10635 whole entry): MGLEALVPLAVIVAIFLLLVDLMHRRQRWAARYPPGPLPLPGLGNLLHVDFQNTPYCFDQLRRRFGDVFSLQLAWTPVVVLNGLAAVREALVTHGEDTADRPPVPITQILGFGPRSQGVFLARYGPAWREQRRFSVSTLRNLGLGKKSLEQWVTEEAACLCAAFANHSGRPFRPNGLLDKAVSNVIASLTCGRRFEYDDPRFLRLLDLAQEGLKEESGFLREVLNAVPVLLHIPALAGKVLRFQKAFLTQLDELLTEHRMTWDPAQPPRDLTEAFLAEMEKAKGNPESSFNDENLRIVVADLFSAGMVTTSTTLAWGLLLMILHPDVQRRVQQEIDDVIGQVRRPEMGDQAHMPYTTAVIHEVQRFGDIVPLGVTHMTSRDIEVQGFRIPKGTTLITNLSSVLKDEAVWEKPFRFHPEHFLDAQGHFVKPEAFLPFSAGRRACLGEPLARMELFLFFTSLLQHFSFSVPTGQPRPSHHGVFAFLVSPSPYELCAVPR
# HBV Cp (3CA Cp150-BODIPY), sequence (P03147 1-150 C48A/C61A/C107A/R150C): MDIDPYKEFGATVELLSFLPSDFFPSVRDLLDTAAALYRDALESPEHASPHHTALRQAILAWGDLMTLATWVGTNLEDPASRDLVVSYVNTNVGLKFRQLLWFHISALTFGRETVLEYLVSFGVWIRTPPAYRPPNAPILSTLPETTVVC
# T3 sequence (P11712 whole entry): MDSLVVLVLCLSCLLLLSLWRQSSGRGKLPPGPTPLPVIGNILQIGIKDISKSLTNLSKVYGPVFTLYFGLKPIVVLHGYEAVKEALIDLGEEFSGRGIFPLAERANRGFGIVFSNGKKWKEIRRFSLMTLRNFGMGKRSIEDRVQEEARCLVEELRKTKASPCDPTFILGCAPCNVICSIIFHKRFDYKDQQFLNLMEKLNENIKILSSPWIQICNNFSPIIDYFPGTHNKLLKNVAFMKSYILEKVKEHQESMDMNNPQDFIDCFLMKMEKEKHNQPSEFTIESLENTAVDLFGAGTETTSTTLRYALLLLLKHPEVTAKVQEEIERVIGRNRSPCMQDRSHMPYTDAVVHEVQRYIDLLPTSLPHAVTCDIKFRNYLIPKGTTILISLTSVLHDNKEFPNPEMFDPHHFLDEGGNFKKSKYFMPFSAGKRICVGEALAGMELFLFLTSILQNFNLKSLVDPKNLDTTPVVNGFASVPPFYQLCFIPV
smiles,measurement,setting,value
O=C(NCc1cnc(C(F)(F)F)s1)c1ccc2c(c1)NC(=O)c1ccccc1S2(=O)=O [ABI-H0731],IC50,CYP2B6,27700 nM
same,IC50,CYP2D6,29600 nM
same,EC50,"HBV [1]; HePAD38, HepAD38, 2% HPL",200 ± 5 nM
same,EC50,"HBV [1]; HePAD38, HepAD38, 20% HPL",522 ± 40 nM
same,"fraction unbound at 6 h, 3 μM",in vitro [2],0.031
same,"fraction unbound at 6 h, 10 μM",in vitro [2],0.034
same,"fraction unbound at 6 h, 30 μM",in vitro [2],0.024
same,Vd,"in vivo; CD-1 (mouse), Sprague-Dawley (rat), beagle (dog), cynomolgus monkey, iv",1.56 to 4.06 L/kg
same,Tmax,"in vivo; CD-1 (mouse), Sprague-Dawley (rat), beagle (dog), cynomolgus monkey, po",0.7 to 3.3 h
same,plasma clearance as % of liver blood flow,"in vivo; CD-1, mouse, iv",9%
same,AUC(0-inf),"in vivo; CD-1, mouse, iv, 1 mg/kg",2070 ng·h/mL
same,T1/2,"in vivo; CD-1, mouse, iv, 1 mg/kg",3.55 h
same,Vd,"in vivo; CD-1, mouse, iv, 1 mg/kg",2.16 L/kg
same,clearance,"in vivo; CD-1, mouse, iv, 1 mg/kg",8.05 mL/min/kg
same,half-life,"in vivo; CD-1, mouse, iv, 1 mg/kg, T1/2",3.6 h
same,AUC(0-inf),"in vivo; CD-1, mouse, po, 5 mg/kg",8690 ng·h/mL
same,Cmax,"in vivo; CD-1, mouse, po, 5 mg/kg",1420 ng/mL
same,Tmax,"in vivo; CD-1, mouse, po, 5 mg/kg",1 h
same,bioavailability,"in vivo; CD-1, mouse, po, 5 mg/kg",84%
same,half-life,"in vivo; CD-1, mouse, po, 5 mg/kg, T1/2",3.03 h
same,plasma clearance as % of liver blood flow,"in vivo; Sprague-Dawley, rat, iv",16%
same,AUC(0-inf),in vivo; [11],1670 ng·h/mL
same,T1/2,in vivo; [11],4.92 h
same,Vd,in vivo; [11],3.47 L/kg
same,clearance,in vivo; [11],10.1 mL/min/kg
same,half-life,"in vivo; Sprague-Dawley, rat, iv, 1 mg/kg, T1/2",4.9 h
same,AUC(0-inf),in vivo; [12],3160 ng·h/mL
same,Cmax,in vivo; [12],324 ng/mL
same,Tmax,in vivo; [12],1 h
same,bioavailability,in vivo; [12],95%
same,half-life,"in vivo; Sprague-Dawley, rat, po, 2 mg/kg, T1/2",6.13 h
same,plasma clearance as % of liver blood flow,"in vivo; beagle, dog, iv",47%
same,AUC(0-inf),"in vivo; beagle, dog, iv, 2 mg/kg",2890 ng·h/mL
same,T1/2,"in vivo; beagle, dog, iv, 2 mg/kg",2.46 h
same,Vd,"in vivo; beagle, dog, iv, 2 mg/kg",1.56 L/kg
same,clearance,"in vivo; beagle, dog, iv, 2 mg/kg",14.7 mL/min/kg
same,half-life,"in vivo; beagle, dog, iv, 2 mg/kg, T1/2",2.5 h
same,bioavailability,"in vivo; beagle, dog, po",49%
same,AUC(0-inf),"in vivo; beagle, dog, po, 3 mg/kg",2150 ng·h/mL
same,Cmax,"in vivo; beagle, dog, po, 3 mg/kg",861 ng/mL
same,Tmax,"in vivo; beagle, dog, po, 3 mg/kg",0.667 h
same,half-life,"in vivo; beagle, dog, po, 3 mg/kg, T1/2",3.34 h
same,plasma clearance as % of liver blood flow,"in vivo; cynomolgus monkey, iv",11%
same,AUC(0-inf),in vivo; [13],1750 ng·h/mL
same,Vd,in vivo; [13],4.06 L/kg
same,clearance,in vivo; [13],4.86 mL/min/kg
same,half-life,in vivo; [13],12.6 h
same,AUC(0-inf),"in vivo; cynomolgus monkey, po, 2 mg/kg",4340 ng·h/mL
same,Cmax,"in vivo; cynomolgus monkey, po, 2 mg/kg",353 ng/mL
same,Tmax,"in vivo; cynomolgus monkey, po, 2 mg/kg",3.33 h
same,bioavailability,"in vivo; cynomolgus monkey, po, 2 mg/kg",55%
same,half-life,"in vivo; cynomolgus monkey, po, 2 mg/kg",11.6 h
same,EC50,HBV Cp Y118F; [14],2070 nM
same,Fold shift,HBV Cp Y118F; Y118F vs wild type,14 fold
same,CC50 at 4 days,in vitro [3],> 10000 nM
same,IC50,[4],267 nM
same,EC50,HBV Cp Y38F; [14],481 ± 34 nM
same,Fold shift,HBV Cp Y38F; Y38F vs wild type,3.3 fold
same,EC50,HBV genotype D,142 ± 48 nM
same,IC50,CYP2C9,30700 nM
same,inhibitory activity against unrelated viruses,[5],no significant inhibitory activity
same,EC50,HBV Cp T109I; [14],> 10000 nM
same,Fold shift,HBV Cp T109I; T109I vs wild type,>68 fold
same,half-life at 1 μM,in vitro [6],1.75 h
same,activity at […],HBV cccDNA; 0.37 μM,90%
same,activity at 1.11 µM,HBV cccDNA; 1.11 μM,80%
same,activity at 3.33 µM,HBV cccDNA; 3.33 μM,56%
same,activity at 10 µM,HBV cccDNA; 10.0 μM,15%
same,CC50 relative to VR EC50,[7],> 50 fold
same,EC50,[8],86 to 142 nM
same,HBV DNA levels,"HBV [9]; 60× VR EC50 (10 μM ABI-H0731), control 2.2 × 10^6",2.1 × 10^3 copies/μl
same,inhibition of HBV DNA replication,HBV [9]; 60× VR EC50 (10 μM),~3 logs
same,inhibition at 1.7 µM,"HBV [9]; Hepatitis B virus, HePAD38, 96 h, read-out: inhibition of HBV replication",98%
same,EC50,"[10]; HePAD38, HepAD38, concomitantly determined with HepG2-NrtI^R, read-out: Mean EC50",221 ± 19 nM
same,EC50,"[10]; HePAD38, HepAD38, total intracellular viral DNA, read-out: Mean EC50, viral DNA",173 ± 40 nM
